Experimental findings from patent US11220523B2, “Carbohydrate ligands that bind to IgM antibodies against myelin-associated glycoprotein” (UNIVERSITÄT BASEL, priority 2014, dated 2022) are described below.

The target of the assay is anti-MAG IgM antibodies. The experiment in a line: Competitive binding assay (modified anti-MAG ELISA): compounds compete with immobilized MAG for anti-MAG IgM antibodies of patient sera. Also noted: species or system human. As to the method:
FIG. 1. Schematic representation of a competitive binding assay • (a) Incubation of MAG-coated plates with anti-MAG IgM (patient sera) and polymer 25. (b) Wash step. (c) Incubation with anti-human IgM antibody coupled to horseradish peroxidase. (d) Wash step. (e) Addition of tetramethylbenzidin (TMB) substrate. (f) Addition of acidic stop solution and measurement of the optical density.
The synthesized carbohydrate monomers (1 and 2) and the polymer 25 were tested in an established ELISA assay (Bühlmann Laboratories, Schonenbuch, Switzerland) applied for the diagnosis of anti-MAG neuropathy and for therapy control in clinic. The assay is used to determine serum concentration of anti-MAG IgM autoantibodies. The assay was modified to a competitive binding assay. The synthesized compounds and serum samples containing anti-MAG IgM antibodies are given into 96 well plates, coated with purified MAG from human brain. Immobilized MAG and the synthesized compounds compete for binding to the anti-MAG IgM antibodies. After a washing step MAG-bound IgM antibodies are detected with a horseradish peroxidase labeled antibody, followed by a colorimetric reaction. Successful competition of the compounds with MAG leads to a decrease in measured OD450 nm (optical density), because they block the binding sites of IgM antibodies, preventing them from binding to MAG. The principle of the assay is depicted in FIG. 1. For the evaluation of the compounds, four sera from different patients ([…]) with reported high anti-MAG IgM antibody titers were chosen. IgM antibody concentrations were determined for each serum in preliminary experiments. Serum dilutions with measured OD450 nm values around 1.0 were chosen for the assay, to be able to compare the measured IC50 values (half maximal inhibitory concentration) which are antibody concentration dependent. Serum dilutions: DP 1:2′500, KH 1:3,000, SJ 1:7,500, MK 1:23,000.
IC50 values of compound 1 were determined for all sera. Those of compound 2 were determined for serum MK with the highest antibody affinity for 1 and for serum SJ with the lowest antibody affinity for 1. The assay was repeated four times. From the received binding curves for each serum, the three best fitted were chosen and normalized for IC50 calculation. For curve generation of compound 2 an artificially high concentration point at 500 mM with 0% antibody binding was added because even at the highest concentration of 2 (50 mM) the inhibition of antibody binding was not 100%. The IC50 values for compound 2 are therefore to be considered as approximated values, although they changed only marginally upon addition of the high concentration point. Under the same assay conditions the carbohydrate polymer was tested with the sera KH, MK and SJ. The measurements were repeated at least three times. The three best fitted curves for each serum were chosen for IC50 calculation.
Sera of four patients (three men and one […]) were investigated. They all were tested positive for a monoclonal IgM gammopathy and were diagnosed with anti-MAG neuropathy at the University Hospital of Basel (Basel, Switzerland). Serum anti-MAG antibody titers were determined by an ELISA assay (Bühlmann Laboratories, Schonenbuch, Switzerland). Sera from two patients with a monoclonal IgM gammopathy and negative anti-MAG activity served as control. Use of sera was approved by the ethics committee of the University Hospital of Basel.
An anti-MAG ELISA kit (Bühlmann Laboratories, Schonenbuch, Switzerland) was used for the biological evaluation of compounds 1, 2 and 25. The 96 well plates coated with purified MAG from human brain were washed four times with washing buffer (300 μl/well) before adding the carbohydrate ligands in seven different concentrations (0.05-50 mM for the monomers 1 and 2 and 0.05-5,000 nM for the polymer 25), 25 μl/well. The patient sera containing anti-MAG IgM antibodies were added in the appropriate dilutions, 25 μl/well. […]

Consider `COc1ccc(OC2OC(CO)C(O)C(OC3OC(C(=O)O)C(O)C(OS(=O)(=O)O)C3O)C2O)cc1` [Compound 1, 4-Methoxyphenyl (Disodium-3-O-Sulfo-β-D-Glucopyranuronate)-(1→3)-β-D-Galacto-Pyranoside], for which the IC50 (commonly the concentration that inhibits the measured activity by half) came to 536 ± 23.5 µM (patient serum DP (dilution 1:2′500), MAG-coated plates); 614 ± 20.1 µM (patient serum KH (dilution 1:3,000), MAG-coated plates); 124 ± 9.5 µM (patient serum MK (dilution 1:23,000), MAG-coated plates); 793 ± 24 µM (patient serum SJ (dilution 1:7,500), MAG-coated plates).
As to `COc1ccc(OC2OC(CO)C(O)C(OC3OC(C(=O)O)C(O)C(O)C3O)C2O)cc1` [Compound 2, 4-Methoxyphenyl (Sodium β-D-Glucopyranuronate)-(1→3)-β-D-Galactopyranoside], the “inhibition of antibody binding” value (highest concentration, 50 mM) is under 100%. Also, under “patient serum MK”, the “weaker binding to the unsulfated disaccharide (versus sulfated disaccharide 1)” value is “approximately 230 fold”. This molecule returned an IC50 (patient serum MK, approximated value, artificial point at 500 mM with 0% antibody binding added for curve fit) of 29000 ± 500 µM and an IC50 (patient serum SJ, approximated value, artificial point at 500 mM with 0% antibody binding added for curve fit) of 10000 ± 1000 µM. Under “patient serum SJ”, the “lower binding affinity to the unsulfated disaccharide (versus sulfated disaccharide 1)” value is given as 12.6 fold.
